Bridge positions count the residues as written; N and C are the ends. Peptide text beside a SMILES is read from it. Where only a bound is given, the exact number is not on record here.

Assay [1] deals with Erythrocyte. The assay can be described thus: Hemolytic activity in human red blood cells after 1 hr. It counts as ADME, cell-based.
The test system of assay [2] is PC-3. The assay can be described thus: Cytotoxicty against human PC3 cells after 24 hrs by MTT assay. It counts as functional, cell-based. Particulars: PC-3, 24 h. (Tetrazolium dyes change colour on reduction, which living cells bring about.)
In assay [3] the test system is HeLa. As to the kind of experiment: Cytotoxicty against human HeLa cells after 24 hrs by MTT assay. It counts as functional, cell-based.
In assay [4] the test system is HUVEC. As to the kind of experiment: Cytotoxicty against HUVEC after 24 hrs by MTT assay. Particulars: Homo sapiens. It counts as cell-based.

One may read the IC50 as the concentration that inhibits the measured activity by half. A higher IC50 goes with lower potency. In the case of `CC(C)C[C@@H]1NC(=O)CNC(=O)[C@H](CC(N)=O)NC(=O)[C@H](CCCNC(=N)N)NC(=O)[C@H]([C@@H](C)O)NC(=O)[C@@H]2CSSC[C@@H]3NC(=O)[C@H]([C@@H](C)O)NC(=O)CNC(=O)CNC(=O)[C@H](C(C)C)NC(=O)[C@@H]4CSSC[C@H](NC(=O)[C@H](CO)NC(=O)[C@H](CSSC[C@H](NC(=O)[C@H](C(C)C)NC(=O)[C@@H]5CCCN5C1=O)C(=O)NCC(=O)N[C@@H](CCC(=O)O)C(=O)N[C@@H]([C@@H](C)O)C(=O)N4)NC(=O)CNC(=O)[C@@H]1CCCN1C(=O)[C@H]([C@@H](C)O)NC(=O)[C@H](CC(N)=O)NC3=O)C(=O)N[C@@H](CO)C(=O)N[C@@H](Cc1c[nH]c3ccccc13)C(=O)N1CCC[C@H]1C(=O)N[C@@H](C(C)C)C(=O)N2`, the IC50 in assay [1] was at least 50000 nM; in assay [2], 3600 nM; in assay [3], 5200 nM; in assay [4], 4000 nM.

With `CC[C@H](C)[C@@H]1NC(=O)[C@H](C)NC(=O)[C@H](C)NC(=O)[C@H](CO)NC(=O)[C@H]([C@@H](C)CC)NC(=O)[C@@H]2CSSC[C@@H]3NC(=O)[C@H](C(C)C)NC(=O)[C@H](CCCCN)NC(=O)[C@H](CO)NC(=O)[C@H](CCCCN)NC(=O)[C@@H]4CSSC[C@H](NC(=O)[C@H](CO)NC(=O)[C@H](CCC(=O)O)NC(=O)CNC(=O)[C@H](CSSC[C@H](NC(=O)CNC1=O)C(=O)N[C@@H](CO)C(=O)N4)NC(=O)[C@@H]1CCCN1C(=O)[C@H]([C@@H](C)CC)NC(=O)CNC(=O)[C@H](CC(N)=O)NC(=O)[C@H](CCCNC(=N)N)NC(=O)[C@H](Cc1ccc(O)cc1)NC3=O)C(=O)N[C@@H](C(C)C)C(=O)N[C@@H](Cc1c[nH]c3ccccc13)C(=O)N[C@@H]([C@@H](C)CC)C(=O)N1CCC[C@H]1C(=O)N2` [CYCLOVIOLACIN O13] (cyclo(AAIGCSCKSKVCYRNGIPCGESCVWIPCIS); disulfide 5-19, 7-23, 12-28), the IC50 in assay [1] amounted to 14900 nM; in assay [2], 600 nM; in assay [3], 700 nM; in assay [4], 500 nM.

In the case of `CC[C@H](C)[C@@H]1NC(=O)[C@@H]2CSSC[C@@H]3NC(=O)[C@H](C(C)C)NC(=O)[C@H](CCCCN)NC(=O)[C@H](CO)NC(=O)[C@H](CCCCN)NC(=O)[C@@H]4CSSC[C@H](NC(=O)[C@H](CO)NC(=O)[C@H](CCC(=O)O)NC(=O)CNC(=O)[C@H](CSSC[C@H](NC(=O)CNC(=O)[C@@H](CC(C)C)NC(=O)[C@H](CC(C)C)NC(=O)[C@H]([C@@H](C)O)NC(=O)[C@H](CO)NC1=O)C(=O)N[C@@H](CO)C(=O)N4)NC(=O)[C@@H]1CCCN1C(=O)[C@H]([C@@H](C)CC)NC(=O)[C@H](C(C)C)NC(=O)CNC(=O)[C@H](CC(N)=O)NC(=O)[C@H](CCCNC(=N)N)NC(=O)[C@H](Cc1ccc(O)cc1)NC3=O)C(=O)N[C@@H](C(C)C)C(=O)N[C@@H](Cc1ccccc1)C(=O)N[C@@H]([C@@H](C)CC)C(=O)N1CCC[C@H]1C(=O)N2`, the figures for the IC50 in assay [2], in assay [3] and in assay [4] were 1100 nM, 1800 nM and 1200 nM, respectively.

For `CC[C@H](C)[C@@H]1NC(=O)[C@@H]2CSSC[C@@H]3NC(=O)[C@H](C(C)C)NC(=O)[C@H](CCCCN)NC(=O)[C@H](CO)NC(=O)[C@H](CCCCN)NC(=O)[C@@H]4CSSC[C@H](NC(=O)[C@H](CO)NC(=O)[C@H](CCC(=O)O)NC(=O)CNC(=O)[C@H](CSSC[C@H](NC(=O)CNC(=O)[C@H](CC(C)C)NC(=O)[C@H](C)NC(=O)[C@H](C)NC(=O)[C@H]([C@@H](C)O)NC1=O)C(=O)N[C@H](CO)C(=O)N4)NC(=O)[C@@H]1CCCN1C(=O)[C@H]([C@@H](C)CC)NC(=O)CNC(=O)[C@H](CC(N)=O)NC(=O)[C@H](CCCNC(=N)N)NC(=O)[C@H](Cc1ccc(O)cc1)NC3=O)C(=O)N[C@@H](C(C)C)C(=O)N[C@@H](Cc1ccc(O)cc1)C(=O)N[C@@H]([C@@H](C)CC)C(=O)N1CCC[C@H]1C(=O)N2`, the IC50 in assay [1] is 11100 nM; in assay [2], 500 nM; in assay [3], 500 nM; in assay [4] it was 400 nM.

Consider `CC[C@H](C)[C@@H]1NC(=O)[C@H](C)NC(=O)[C@H](CO)NC(=O)[C@H](CO)NC(=O)[C@H]([C@@H](C)CC)NC(=O)[C@@H]2CSSC[C@@H]3NC(=O)[C@H](C(C)C)NC(=O)[C@H](CCCCN)NC(=O)[C@H](CO)NC(=O)[C@H](CCCCN)NC(=O)[C@@H]4CSSC[C@H](NC(=O)[C@H](CO)NC(=O)[C@H](CCC(=O)O)NC(=O)CNC(=O)[C@H](CSSC[C@H](NC(=O)CNC1=O)C(=O)N[C@@H](CO)C(=O)N4)NC(=O)[C@@H]1CCCN1C(=O)[C@H]([C@@H](C)CC)NC(=O)CNC(=O)[C@H](CC(N)=O)NC(=O)[C@H](CCCNC(=N)N)NC(=O)[C@H](Cc1ccc(O)cc1)NC3=O)C(=O)N[C@@H](C(C)C)C(=O)N[C@@H](Cc1c[nH]c3ccccc13)C(=O)N[C@@H]([C@@H](C)CC)C(=O)N1CCC[C@H]1C(=O)N2` (cyclo(AIGCSCKSKVCYRNGIPCGESCVWIPCISS); disulfide 4-18, 6-22, 11-27), for which the IC50 amounted to 800 nM in assay [2], 700 nM in assay [3] and 600 nM in assay [4].

(Values after ChEMBL document CHEMBL4619762, “Exploring the Sequence Diversity of Cyclotides from Vietnamese Viola Species” (J Nat Prod, 2020).)
